In PubChem BioAssay AID248 (DTP/NCI, 2004):
Toxic doses and inconclusive results are not listed.

System: L1210 leukemia ip in BDF1 mice, survival T/C
Assay: NCI In Vivo Anticancer Drug Screen. Data for tumor model L1210 Leukemia (intraperitoneal) in B6D2F1 (BDF1) mice
Details: endpoint: mean survival time, higher = longer survival
Procedure, shortened: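 Survival endpoint. Drug-treated group vs vehicle group, expressed as T divided by C. Tumor passaged by transplantation.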

[1] = dose: 100.0 mg/kg/injection, schedule: Q01DX009 (ip), vehicle: saline with Tween-80
[2] = dose: 100.0 mg/kg/injection, schedule: Q01DX001 (ip), vehicle: carboxymethylcellulose (CMC)
[3] = dose: 200.0 mg/kg/injection, schedule: Q01DX001 (ip), vehicle: carboxymethylcellulose (CMC)
[4] = dose: 100.0 mg/kg/injection, schedule: Q01DX001 (ip), vehicle: saline
[5] = dose: 100.0 mg/kg/injection, schedule: Q04DX003 (ip), vehicle: saline
[6] = dose: 200.0 mg/kg/injection, schedule: Q01DX001 (ip), vehicle: saline
[7] = dose: 200.0 mg/kg/injection, schedule: Q04DX003 (ip), vehicle: saline

With `O=[N+]([O-])c1cc(/C=N\N=C\c2ccco2)ccc1Cl` the T/C (dose: 5.0 mg/kg/injection, schedule: Q01DX001 (ip), vehicle: saline) was 100 % of control, the T/C (dose: 10.0 mg/kg/injection, schedule: Q01DX001 (ip), vehicle: saline) was 98 % of control and the T/C (dose: 20.0 mg/kg/injection, schedule: Q01DX001 (ip), vehicle: saline) was 96 % of control. For the same molecule, the T/C (dose: 40.0 mg/kg/injection, schedule: Q01DX001 (ip), vehicle: saline) was 88 % of control and the T/C (dose: 80.0 mg/kg/injection, schedule: Q01DX001 (ip), vehicle: saline) was 88 % of control.

`C=C(C)CSC(=S)NNc1ccccc1` was tested, and the T/C (dose: 150.0 mg/kg/injection, schedule: Q01DX009 (ip), vehicle: saline with Tween-80) was 93 % of control and the T/C (dose: 225.0 mg/kg/injection, schedule: Q01DX009 (ip), vehicle: saline with Tween-80) was 86 % of control.

For `C=CCCC1CC(C(C)C)CC2(C1)OCCO2` (centres undefined), the T/C (dose: 50.0 mg/kg/injection, schedule: Q01DX009 (ip), vehicle: saline with Tween-80) was 96 % of control and the T/C [1] was 96 % of control.

In the case of `O=C(Nc1ccccc1F)c1ccco1`, the T/C (dose: 100.0 mg/kg/injection, schedule: Q01DX009 (ip), vehicle: Klucel (hydroxypropylcellulose) (HPC)) is reported as 100 % of control and the T/C (dose: 200.0 mg/kg/injection, schedule: Q01DX009 (ip), vehicle: Klucel (hydroxypropylcellulose) (HPC)) is reported as 103 % of control.

In the case of `O=C(CBr)c1ccc(I)cc1`, the T/C (dose: 3.13 mg/kg/injection, schedule: Q01DX009 (ip), vehicle: saline with Tween-80) is reported as 92 % of control, the T/C (dose: 6.25 mg/kg/injection, schedule: Q01DX009 (ip), vehicle: saline with Tween-80) is reported as 95 % of control and the T/C (dose: 12.5 mg/kg/injection, schedule: Q01DX009 (ip), vehicle: saline with Tween-80) is reported as 97 % of control. For the same molecule, the T/C (dose: 25.0 mg/kg/injection, schedule: Q01DX009 (ip), vehicle: saline with Tween-80) was 100 % of control, the T/C [2] was 91 % of control and the T/C [3] was 101 % of control.

`NC(=O)c1c[n+]([O-])ccn1` was tested, and the T/C (dose: 50.0 mg/kg/injection, schedule: Q04DX003 (ip), vehicle: saline) was 108 % of control, the T/C [4] was 96 % of control and the T/C [5] was 101 % of control. For the same molecule, the T/C [6] was 98 % of control and the T/C [7] was 113 % of control.

With `NC(=O)C1C(=O)OC2CCCCC21` (centres undefined) the T/C [4] was 92 % of control, the T/C [6] was 87 % of control and the T/C (dose: 400.0 mg/kg/injection, schedule: Q01DX001 (ip), vehicle: saline) was 97 % of control.

In the case of `ONC(=NCc1ccccc1)c1ccccc1`, the T/C [2] is reported as 97 % of control and the T/C [3] is reported as 103 % of control.

`CCOC(=O)C1C(C(=O)c2ccc(C)cc2)C2(Cl)C(Cl)=C(Cl)C1(Cl)C2(Cl)Cl` (centres undefined) was tested, and the T/C (dose: 100.0 mg/kg/injection, schedule: Q01DX009 (ip), vehicle: saline) was 96 % of control, the T/C (dose: 200.0 mg/kg/injection, schedule: Q01DX009 (ip), vehicle: saline) was 91 % of control and the T/C (dose: 400.0 mg/kg/injection, schedule: Q01DX009 (ip), vehicle: saline) was 98 % of control.

With `CCNC(C)(C)C(O)c1ccc(Cl)s1` (centres undefined) the T/C [1] was 98 % of control, the T/C (dose: 100.0 mg/kg/injection, schedule: Q04DX003 (ip), vehicle: saline with Tween-80) was 100 % of control and the T/C (dose: 200.0 mg/kg/injection, schedule: Q01DX009 (ip), vehicle: saline with Tween-80) was 98 % of control. For the same molecule, the T/C (dose: 200.0 mg/kg/injection, schedule: Q04DX003 (ip), vehicle: saline with Tween-80) was 102 % of control and the T/C (dose: 400.0 mg/kg/injection, schedule: Q04DX003 (ip), vehicle: saline with Tween-80) was 103 % of control.

`CC1CC(=O)c2cccc(Cl)c2N1C` (centres undefined) was tested, and the T/C (dose: 100.0 mg/kg/injection, schedule: Q04DX003 (ip), vehicle: Klucel (hydroxypropylcellulose) (HPC)) was 100 % of control, the T/C (dose: 200.0 mg/kg/injection, schedule: Q04DX003 (ip), vehicle: Klucel (hydroxypropylcellulose) (HPC)) was 100 % of control and the T/C (dose: 400.0 mg/kg/injection, schedule: Q04DX003 (ip), vehicle: Klucel (hydroxypropylcellulose) (HPC)) was 98 % of control.

`CN(C)c1ccc(C(N)=O)cn1` was tested, and the T/C (dose: 16.5 mg/kg/injection, schedule: Q01DX009 (ip), vehicle: saline with Tween-80) was 102 % of control, the T/C (dose: 29.0 mg/kg/injection, schedule: Q04DX003 (ip), vehicle: saline) was 112 % of control and the T/C (dose: 45.0 mg/kg/injection, schedule: Q04DX003 (ip), vehicle: saline) was 120 % of control. The T/C (dose: 66.0 mg/kg/injection, schedule: Q04DX003 (ip), vehicle: saline) was 113 % of control, the T/C [5] was 114 % of control and the T/C [7] was 102 % of control.

`CN(CCO)/N=N/c1nc[nH]c1C(N)=O` was tested, and the T/C [2] was 107 % of control, the T/C [3] was 113 % of control and the T/C (dose: 400.0 mg/kg/injection, schedule: Q01DX001 (ip), vehicle: carboxymethylcellulose (CMC)) was 107 % of control. For the same molecule, the T/C (dose: 400.0 mg/kg/injection, schedule: Q01DX009 (ip), vehicle: carboxymethylcellulose (CMC)) was 169 % of control and the T/C (dose: 800.0 mg/kg/injection, schedule: Q01DX009 (ip), vehicle: carboxymethylcellulose (CMC)) was 92 % of control.
